The results in this text go back to patent publication US20220096411A1, “COMBINING METABOLIC STIMULATION AND AMINO ACIDS TO SENSITIZE TOLERANT BACTERIA TO ANTIBIOTICS” (priority 2019, published 2022).

The subject of assay [1] is Escherichia coli K12 strain MG1655. Kind of assay: MIC determination (metabolite-enabled MIC from optical density dose-response). It counts as cell-based. The settings on record: for change of ampicillin MIC on amino acid supplementation: across all tested growth-supporting metabolites (carbon sources), FIG. 2B; for metabolite-enabled MIC of β-lactams upon metabolite supplementation: ampicillin, carbenicillin, mecillinam, penicillin, 1% LB; for metabolite-enabled MIC of β-lactams upon metabolite supplementation / metabolite-enabled MIC, D-isomer compared with L-isomer: metabolite 10 mM; for metabolite-enabled MIC, D-isomer compared with L-isomer: β-lactams of FIG. 1B; for potentiation of the antibiotic by D-amino acids: with pyruvate (FIG. 2E) or without metabolic stimulant (FIG. 2F), ampicillin potentiated, comparators D-cycloserine, ciprofloxacin, gentamicin are the non-β-lactams.

For assay [2] the test system is unchanged. The assay is described as follows: Killing assay (CFU) of tolerant stationary phase cultures. It counts as cell-based. To be noted: for ability of individual carbon source to restore β-lactam antibiotic sensitivity (CFU/mL): tolerant cultures grown in 100% LB medium, FIG. 5.
The subject of assay [3] is E. coli genetic knockout ΔdadA. Kind of assay: Ampicillin sensitization of knockout strain unable to catabolize D-alanine into pyruvate. Type of assay: cell-based, Escherichia coli. To be noted: FIG. 2A; for sensitivity of tolerant ΔdadA bacteria to ampicillin on amino acid supplementation alone: no pyruvate; for potentiation of ampicillin sensitivity of ΔdadA strain by amino acid: strain supplemented with pyruvate.

The test system of assay [4] is clinical isolate of Escherichia coli (isolate DICON-146). Kind of assay: Killing assay, ampicillin-resistant ESBL clinical isolate in stationary phase. It counts as cell-based. To be noted: D-methionine added on top of sulbactam and pyruvate; FIG. 3C.
The test system of assay [5] is Escherichia coli K12 strain MG1655. Type of assay: cell-based.

As to `C[C@@H](N)C(=O)O` [D-alanine], in assay [1], the “change of ampicillin MIC on amino acid supplementation” value is given as “consistently lowered the ampicillin MIC” and the “metabolite-enabled MIC, D-isomer compared with L-isomer” value is “outperformed their corresponding L-isomers”. The “metabolite-enabled MIC of β-lactams upon metabolite supplementation” value in assay [1] (FIG. 1B) is “lowest observed MICs”. The “performance of metabolite in sensitizing cultures to ampicillin (CFU confirmed cell death)” value in assay [2] (cultures treated with ampicillin and metabolite, FIG. 1A) was “strong”. In assay [3], the “sensitivity of tolerant ΔdadA bacteria to ampicillin on amino acid supplementation alone” value is recorded as “equally insensitive to ampicillin” and the “potentiation of ampicillin sensitivity of ΔdadA strain by amino acid” value is reported as “potentiate sensitivity to ampicillin”.

For `N[C@@H]1CONC1=O` [D-cycloserine, reference compound], the “potentiation of the antibiotic by D-amino acids” value (“potentiation of the antibiotic” for short) in assay [1] was “specific to β-lactam antibiotics”.

As for `CSCC[C@@H](N)C(=O)O` [D-methionine], in assay [4], the “restoration of ampicillin sensitivity of resistant (ESBL) E. coli in stationary phase” value was “further potentiated killing by lower drug concentrations”. In addition, in assay [1] (FIG. 1B, FIG. 2C), the “observed effect size of D-amino acid on β-lactam MIC” value was “larger than for D-alanine”. Besides, in assay [2] (MOPS-rich medium, D-methionine added on top of pyruvate, FIG. 3A), the “sensitization of stationary phase MG1655 to ampicillin in MOPS-rich medium” value is on record as “further potentiated ampicillin”. Besides, the “effect of D-methionine on population density (CFU)” value in assay [5] (used alone or in combination with xylose, FIG. 7B) is recorded as “did not increase population density”.

`O=C(O)[C@H]1CCCN1` [D-proline]: in assay [1] (cultures sensitized with pyruvate, alanine pair in dadA mutant, FIG. 2C), the “change of ampicillin MIC, D-amino acid compared with L-isomer” value was “less robust than for other D-amino acids”.

Turning to `N[C@H](CO)C(=O)O` [D-serine], the “metabolite-enabled MIC of β-lactams upon metabolite supplementation” value in assay [1] (FIG. 1B) is on record as “lowest observed MICs”. Also, the “metabolite-enabled MIC, D-isomer compared with L-isomer” value in assay [1] is given as “outperformed their corresponding L-isomers”.

For the compound `C[C@H](N)C(=O)O` [L-alanine], in assay [1], the “change of ampicillin MIC on amino acid supplementation” value was “did not”. In assay [3], the “sensitivity of tolerant ΔdadA bacteria to ampicillin on amino acid supplementation alone” value is “equally insensitive to ampicillin” and the “potentiation of ampicillin sensitivity of ΔdadA strain by amino acid” value is “no such potentiation was observed”.

As to `CC1(C)S[C@@H]2[C@H](NC(=O)[C@H](N)c3ccccc3)C(=O)N2[C@H]1C(=O)O` [ampicillin, reference compound], the “potentiation of the antibiotic” value in assay [1] was “specific to β-lactam antibiotics”. Moreover, in assay [2] (24 hour treatment with 1 mg/ml ampicillin, cultures grown in LB 24 hours, FIG. 1A), the “killing of stationary phase cultures by the antibiotic alone” value is listed as “not killed”.

As for `O=C[C@@H](O)[C@H](O)[C@H](O)CO` [arabinose], the “ability of individual carbon source to restore β-lactam antibiotic sensitivity (CFU/mL)” value (“ability of individual carbon source” for short) in assay [2] is on record as “varying abilities to restore β-lactam antibiotic sensitivity”.

As for `O=C(CO)[C@@H](O)[C@H](O)[C@H](O)CO` [fructose], the “ability of individual carbon source” value in assay [2] is listed as “varying abilities to restore β-lactam antibiotic sensitivity”.

For `O=C(O)[C@H](O)[C@@H](O)[C@H](O)[C@H](O)CO` [gluconate], the “ability of individual carbon source” value in assay [2] is given as “varying abilities to restore β-lactam antibiotic sensitivity”.

`OCC(O)CO` [glycerol]: the “ability of individual carbon source” value in assay [2] is recorded as “varying abilities to restore β-lactam antibiotic sensitivity”.

With `OC[C@@H](O)[C@@H](O)[C@H](O)[C@H](O)CO` [mannitol], in assay [2], the “ability of individual carbon source” value was “varying abilities to restore β-lactam antibiotic sensitivity”.

Take `CCN1CCN(C(=O)N[C@@H](C(=O)N[C@@H]2C(=O)N3[C@@H]2SC(C)(C)[C@@H]3C(=O)O)c2ccccc2)C(=O)C1=O` [piperacillin, reference compound]: in assay [2] (metabolic stimulation by pyruvate and potentiation by D-amino acids, FIG. 2G), the “sensitization of tolerant bacteria to the antibiotic” value is recorded as “sensitized tolerant bacteria”.

Regarding `CC1(C)[C@H](C(=O)O)N2C(=O)C[C@H]2S1(=O)=O` [sulbactam, reference compound], the “restoration of ampicillin sensitivity of resistant (ESBL) E. coli in stationary phase” value in assay [4] is listed as “unable to restore sensitivity to ampicillin”.

`O=C[C@H](O)[C@@H](O)[C@H](O)CO` [xylose]: in assay [2], the “ability of individual carbon source” value was “varying abilities to restore β-lactam antibiotic sensitivity”. Also, the “effect of carbon source on growth and population density (CFU)” value in assay [5] (cultures grown in 1% LB medium, 10 mM, no antibiotic, FIG. 7A right) was “did stimulate growth and an increase in population density”. Moreover, in assay [5] (cultures grown in 100% LB medium, 10 mM, no antibiotic, FIG. 7A left), the “effect of carbon source on population density (CFU)” value was “did not lead to an increase in population density”.

Turning to gentamicin [reference compound], in assay [1], the “potentiation of the antibiotic” value is “specific to β-lactam antibiotics”.
